Data as given in BigSolDB 2.1.

CN1CCOC(c2ccccc2)c2ccccc2C1.Cl (stereo not drawn)
solubility (mole fraction)
Conditions | in acetone | in ethanol | in isobutanol | in isopropanol | in methanol | in n-butanol | in n-propanol | in water
273.15 K | 7.2e-05 | 0.00136 | 0.000415 | 0.000136 | 0.00515 | 0.000205 | 0.000291 | 0.000951
278.15 K | 8.7e-05 | 0.00163 | 0.000524 | 0.000167 | 0.00566 | 0.000245 | 0.000328 | 0.00106
283.15 K | 0.000107 | 0.00198 | 0.000635 | 0.000206 | 0.00632 | 0.000287 | 0.000387 | 0.00124
288.15 K | 0.000128 | 0.00247 | 0.000797 | 0.000251 | 0.00692 | 0.000369 | 0.000495 | 0.00144
293.15 K | 0.000151 | 0.0029 | 0.000955 | 0.00032 | 0.00764 | 0.000463 | 0.000652 | 0.00167
298.15 K | 0.000182 | 0.00337 | 0.00116 | 0.000407 | 0.00856 | 0.000605 | 0.000836 | 0.00199
303.15 K | 0.000215 | 0.00402 | 0.00144 | 0.000494 | 0.00951 | 0.000776 | 0.00106 | 0.00234
308.15 K | 0.000265 | 0.00473 | 0.00175 | 0.000608 | 0.0105 | 0.000986 | 0.00134 | 0.00273
313.15 K | 0.000312 | 0.00559 | 0.00214 | 0.000752 | 0.0115 | 0.00125 | 0.0017 | 0.00317
318.15 K | 0.000373 | 0.00654 | 0.0026 | 0.000935 | 0.0128 | 0.00159 | 0.00213 | 0.00369
323.15 K | 0.000445 | 0.00795 | 0.00321 | 0.00114 | 0.0143 | 0.00198 | 0.00267 | 0.00426
